Results from publication PMC8296573, “Synthesis and Biological Evaluation of Fingolimod Derivatives as Antibacterial Agents” (ACS Omega, 2021).
In brackets after ≈: the same amount, converted by molar mass. Read-outs that look alike come from different tables or passages of the source.

Columns and labels:
S. aureus ATCC 25923 [1] = test: Antibacterial activity, pre-exposure (planktonic cells and biofilm formation); type: cell-based, Staphylococcus aureus; details: for MIC / inhibition at 5 µM / inhibition at 10 µM / inhibition at 15 µM / inhibition at 25 µM: Staphylococcus aureus, ATCC25923; for inhibition at 5 µM / inhibition at 10 µM / inhibition at 15 µM / inhibition at 25 µM / Average inhibition %, biofilms viability / Average inhibition %, planktonic cells viability: pre-exposure, ± SD
Summary of the method: (§1)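 Read-outs were turbidity and resazurin reduction for planktonic cells, and resazurin followed by crystal violet biomass (A595) for biofilms. Compounds were present from inoculation onward, with 18 h aerobic growth at 37 °C under shaking.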

S. aureus ATCC 25923 [2] = test: Antibacterial activity, post-exposure on preformed 18-h-old biofilms; type: cell-based, Staphylococcus aureus; details: for Average inhibition %, biofilms viability / Average inhibition %, planktonic cells viability / inhibition at 25 µM / inhibition at 50 µM / inhibition at 100 µM / inhibition at 200 µM: ± SD; for inhibition at 25 µM / inhibition at 50 µM / inhibition at 100 µM / inhibition at 200 µM: Staphylococcus aureus; for inhibition at 25 µM: ATCC25923, 25 µM; for inhibition at 50 µM: ATCC25923, 50 µM; for inhibition at 100 µM: ATCC25923, 100 µM; for inhibition at 200 µM: ATCC25923, 200 µM
Summary of the method: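 Biofilms grown 18 h without compound, medium then replaced and compound added for a further 24 h. Planktonic OD and resazurin (20 μM final) fluorescence (ex 560/em 590 nm) read; washed biofilms stained with 20 μM resazurin 30 min at 37 °C, then ethanol-fixed and crystal violet-stained, absorbance 595 nm.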

A. baumannii NCTC 13423 = test: Antibacterial activity, pre-exposure; type: cell-based, Acinetobacter baumannii; details: for Average inhibition %, biofilms viability / Average inhibition %, planktonic cells viability / inhibition at 10 µM / inhibition at 15 µM / inhibition at 25 µM / inhibition at 50 µM: A. baumannii NCTC 13423, pre-exposure, ± SD; for inhibition at 10 µM / inhibition at 15 µM / inhibition at 25 µM / inhibition at 50 µM / MIC: Acinetobacter baumannii, NCTC13423
Summary of the method: as §1

P. aeruginosa ATCC 9027 = test: Antibacterial activity, pre-exposure; type: cell-based, Pseudomonas aeruginosa; details: for Average inhibition %, biofilms viability / Average inhibition %, planktonic cells viability / inhibition at 50 µM / inhibition at 100 µM / inhibition at 150 µM / inhibition at 200 µM: P. aeruginosa ATCC 9027, pre-exposure, ± SD; for MIC / inhibition at 50 µM / inhibition at 100 µM / inhibition at 150 µM / inhibition at 200 µM: Pseudomonas aeruginosa; for inhibition at 50 µM / inhibition at 100 µM / inhibition at 150 µM / inhibition at 200 µM: ATCC9027
Summary of the method: as §1

[3] = 10 µM, read-out: Average inhibition %, biofilms biomass
[4] = 10 µM, read-out: Average inhibition %, planktonic cells turbidity
[5] = 15 µM, read-out: Average inhibition %, biofilms biomass
[6] = 15 µM, read-out: Average inhibition %, planktonic cells turbidity
[7] = 25 µM, read-out: Average inhibition %, biofilms biomass
[8] = 25 µM, read-out: Average inhibition %, planktonic cells turbidity
[9] = read-out: Average inhibition %, biofilms biomass
[10] = read-out: Average inhibition %, planktonic cells turbidity
[11] = 50 µM, read-out: Average inhibition %, biofilms biomass
[12] = 50 µM, read-out: Average inhibition %, planktonic cells turbidity

## CCCCCCCCc1ccc(CC(N)(CO)CO)cc1 [Compound 44, 2-Amino-2-(4-octylbenzyl)propane-1,3-diol]
S. aureus ATCC 25923 [1]; lowest concentration with no visible growth (>90% inhibition of turbidity and viability of planktonic cells), 18 h, read-out: MIC S. aureus ATCC 25923
  MIC: 15 to 25 µM (≈ 4.4 to 7.34 µg/mL)
S. aureus ATCC 25923 [1]; 5 µM, read-out: Average inhibition %, biofilms biomass
  inhibition at 5 µM: 23.2 ± 23.4%
S. aureus ATCC 25923 [1]; 5 µM, read-out: Average inhibition %, planktonic cells turbidity
  inhibition at 5 µM: 18.4 ± 6.2%
S. aureus ATCC 25923 [1]; [3]
  inhibition at 10 µM: 36.6 ± 27.8%
S. aureus ATCC 25923 [1]; [4]
  inhibition at 10 µM: 31.2 ± 8.9%
S. aureus ATCC 25923 [1]; [5]
  inhibition at 15 µM: 76.6 ± 21.5%
S. aureus ATCC 25923 [1]; [6]
  inhibition at 15 µM: 79.2 ± 28.2%
S. aureus ATCC 25923 [1]; [7]
  inhibition at 25 µM: 93.1 ± 4.2%
S. aureus ATCC 25923 [1]; [8]
  inhibition at 25 µM: 99.1 ± 0.7%
S. aureus ATCC 25923 [1]; read-out: MIC (S. aureus)
  MIC: 15 to 25 µM (≈ 4.4 to 7.34 µg/mL)
S. aureus ATCC 25923 [1]; 5 µM
  Average inhibition %, biofilms viability: 24.9 ± 12.6%
  Average inhibition %, planktonic cells viability: 0 ± 0%
S. aureus ATCC 25923 [1]; 10 µM
  Average inhibition %, biofilms viability: 44.4 ± 4.9%
  Average inhibition %, planktonic cells viability: 0 ± 0%
S. aureus ATCC 25923 [1]; 15 µM
  Average inhibition %, biofilms viability: 76.2 ± 29.5%
  Average inhibition %, planktonic cells viability: 66.8 ± 54.1%
S. aureus ATCC 25923 [1]; 25 µM
  Average inhibition %, biofilms viability: 99.7 ± 0%
  Average inhibition %, planktonic cells viability: 100 ± 0.2%
S. aureus ATCC 25923 [2]; 25 µM
  Average inhibition %, biofilms viability: 21 ± 11.5%
  Average inhibition %, planktonic cells viability: 3.8 ± 6.6%
S. aureus ATCC 25923 [2]; 50 µM
  Average inhibition %, biofilms viability: 38.2 ± 8.2%
  Average inhibition %, planktonic cells viability: 56.1 ± 15.4%
S. aureus ATCC 25923 [2]; 100 μM
  Inhibition of viability and total biomass of preformed biofilms: at least 70%
S. aureus ATCC 25923 [2]; 100 µM
  Average inhibition %, biofilms viability: 74 ± 21.5%
  Average inhibition %, planktonic cells viability: 99.8 ± 0.6%
S. aureus ATCC 25923 [2]; 200 µM
  Average inhibition %, biofilms viability: 98.5 ± 0.1%
  Average inhibition %, planktonic cells viability: 100.1 ± 0.1%
S. aureus ATCC 25923 [2]; [9]
  inhibition at 25 µM: 36 ± 3.3%
  inhibition at 50 µM: 51.6 ± 10.7%
  inhibition at 100 µM: 70.5 ± 19.2%
  inhibition at 200 µM: 92 ± 1.2%
S. aureus ATCC 25923 [2]; [10]
  inhibition at 25 µM: 6.1 ± 10.6%
  inhibition at 50 µM: 58.6 ± 10.2%
  inhibition at 100 µM: 84.7 ± 3.3%
  inhibition at 200 µM: 85.9 ± 5.3%
A. baumannii NCTC 13423; 10 µM
  Average inhibition %, biofilms viability: 0.6 ± 1%
  Average inhibition %, planktonic cells viability: 12.3 ± 2.4%
A. baumannii NCTC 13423; 15 µM
  Average inhibition %, biofilms viability: 8.6 ± 7.8%
  Average inhibition %, planktonic cells viability: 9.2 ± 5.8%
A. baumannii NCTC 13423; 25 µM
  Average inhibition %, biofilms viability: 88.7 ± 15.2%
  Average inhibition %, planktonic cells viability: 83.5 ± 27.6%
A. baumannii NCTC 13423; 50 µM
  Average inhibition %, biofilms viability: 99.9 ± 1%
  Average inhibition %, planktonic cells viability: 99.8 ± 0.5%
A. baumannii NCTC 13423; [3]
  inhibition at 10 µM: 0%
A. baumannii NCTC 13423; [4]
  inhibition at 10 µM: 0%
A. baumannii NCTC 13423; [5]
  inhibition at 15 µM: 5.6 ± 6.5%
A. baumannii NCTC 13423; [6]
  inhibition at 15 µM: 2.8 ± 3.7%
A. baumannii NCTC 13423; [7]
  inhibition at 25 µM: 69.4 ± 13.7%
A. baumannii NCTC 13423; [8]
  inhibition at 25 µM: 88.1 ± 19%
A. baumannii NCTC 13423; [11]
  inhibition at 50 µM: 86.2 ± 2.3%
A. baumannii NCTC 13423; [12]
  inhibition at 50 µM: 98.3 ± 1.2%
A. baumannii NCTC 13423; pre-exposure, Inactive = no activity up to 50 μM, > = some inhibition but no MIC reached, read-out: MIC A. baumannii NCTC 13423
  MIC: 25 to 50 µM (≈ 7.34 to 14.7 µg/mL)
A. baumannii NCTC 13423; supplementary molecular formula strings sheet, read-out: MIC (A. baumannii)
  MIC: 25 to 50 µM (≈ 7.34 to 14.7 µg/mL)
P. aeruginosa ATCC 9027; 50 µM
  Average inhibition %, biofilms viability: 9 ± 8%
  Average inhibition %, planktonic cells viability: 31.4 ± 12.8%
P. aeruginosa ATCC 9027; 100 µM
  Average inhibition %, biofilms viability: 43 ± 44.4%
  Average inhibition %, planktonic cells viability: 95.8 ± 3.5%
P. aeruginosa ATCC 9027; 150 µM
  Average inhibition %, biofilms viability: 42.2 ± 50.3%
  Average inhibition %, planktonic cells viability: 92.1 ± 9.3%
P. aeruginosa ATCC 9027; 200 µM
  Average inhibition %, biofilms viability: 34.5 ± 36.6%
  Average inhibition %, planktonic cells viability: 88.7 ± 10.2%
P. aeruginosa ATCC 9027; ATCC9027, pre-exposure, Inactive = no activity up to 200 μM, > = some inhibition but no MIC reached, read-out: MIC P. aeruginosa ATCC 9027
  MIC: > 200 µM
P. aeruginosa ATCC 9027; ATCC9027, supplementary molecular formula strings sheet, read-out: MIC (P. aeruginosa)
  MIC: > 200 µM
P. aeruginosa ATCC 9027; [11]
  inhibition at 50 µM: 35.2 ± 19.9%
P. aeruginosa ATCC 9027; [12]
  inhibition at 50 µM: 28.4 ± 10.9%
P. aeruginosa ATCC 9027; 100 µM, read-out: Average inhibition %, biofilms biomass
  inhibition at 100 µM: 57.7 ± 30.4%
P. aeruginosa ATCC 9027; 100 µM, read-out: Average inhibition %, planktonic cells turbidity
  inhibition at 100 µM: 93.7 ± 2.6%
P. aeruginosa ATCC 9027; 150 µM, read-out: Average inhibition %, biofilms biomass
  inhibition at 150 µM: 54.7 ± 35.2%
P. aeruginosa ATCC 9027; 150 µM, read-out: Average inhibition %, planktonic cells turbidity
  inhibition at 150 µM: 92.2 ± 4.8%
P. aeruginosa ATCC 9027; 200 µM, read-out: Average inhibition %, biofilms biomass
  inhibition at 200 µM: 48.7 ± 28.5%
P. aeruginosa ATCC 9027; 200 µM, read-out: Average inhibition %, planktonic cells turbidity
  inhibition at 200 µM: 88.5 ± 4.4%
